Laboratory results taken from patent publication US4070492A, “Propranolol assay” (priority 1977, dated 1978).
“Also recorded” adds a separate entry of the source.

Assays:
[1] = system: both antisera (against d,l-propranolol and l-propranolol); assay: Competition with 3H-propranolol for binding, results stated once for both antisera; parameters: species or system rabbit; conditions: for inhibition of 3H-propranolol binding: at 100 ng; for recognition / cross-reaction / interference: in words
Protocol: (§1) New Zealand albino rabbits were immunized with propranolol-BSA immunogens once a week for 4 weeks and then once every 2 to 4 weeks. The immunogen was dissolved in phosphate-buffered saline (pH 7.4)
(§2) and emulsified with an equal amount of complete Freund's adjuvant. One ml. of emulsion containing 500 μg of immunogen was injected into four foot pads and intramuscularly into both thighs. Bleedings were taken from the central ear artery 6 to 8 days after the third booster injection. Blood was allowed to clot overnight at 4° C. and centrifuged at 2,000 rpm for 15 mintues to separate serum.
(§3) Antisera were diluted in a 2.5% solution of normal rabbit serum in 1:10 phosphate buffered saline. 0.4 ml. of this mixture was added to the assay tubes (10 × 75 mm). 10 μ1. of unknown or standard solutions were added to the tubes. 0.1 ml. of radioactive, d,l-propranolol solution containing 60 pg. (approximately 2,500 cpm) for antiserum against […] and 120 pg. (approximately 5,000 cpm) for antiserum against l-propranolol was subsequently added. The tubes were incubated overnight at 4° C. Antibody bound propranolol was separated by the addition of 0.5 ml. of saturated ammonium sulfate. The pellet was washed once with 0.8 ml. of 50% saturated ammonium sulfate, then dissolved in 0.5 ml. of water and transferred into a counting vial. The tube was washed twice with 3 ml. of Riafluor. Another portion of 6 ml. Riafluor was added to the vial to give a total volume of 12 ml., and the radioactivity was counted in a scintillation counter. The dilutions of the antisera used were 1:10,000 and 1:1000 respectively against d,l-propranolol and l-propranolol.
(§4) The sensitivity of radioimmunoassay for d,l-propranolol and its l-isomer in phosphate-buffered saline and serum were determined.
(§5) ID50 refers to the amount of the compound required to produce 50% inhibition of ^3 H-propranolol-antibody complex formation.

[2] = system: antiserum against d,l-propranolol; assay: Competition with 3H-propranolol for binding to antiserum against d,l-propranolol (radioimmunoassay specificity); parameters: species or system rabbit; conditions: for inhibition of 3H-propranolol binding: at 100 ng; for recognition by antiserum against d,l-propranolol: d- versus l-propranolol
Protocol: as §1, §2, §3, §4, §5

[3] = system: antiserum against l-propranolol; assay: Competition with 3H-propranolol for binding to antiserum against l-propranolol (radioimmunoassay specificity); parameters: species or system rabbit; conditions: for inhibition of 3H-propranolol binding: at 100 ng
Protocol: as §1, §2, §3, §4, §5

[4] = Disposition of propranolol in rats: serum/blood levels by radioimmunoassay; conditions: rat; for disposition in blood: 1 mg/kg racemic propranolol i.v., in words; for half-life: blood, iv, 1 mg/kg
[5] = system: heart rate increase caused by isoproterenol; assay: Inhibition by propranolol of heart rate increase caused by isoproterenol in anesthetized rats; assay type: in vivo; conditions: rat, 1 mg/kg i.v.
Excerpt: Increase in heart rate in response to isoproterenol 0.5 g/kg i.v. was compared beforeand at varying time after the administration of propranolol.

[6] = rat, in vivo, iv, 1 mg/kg
[7] = Disposition of propranolol in rats: heart levels by radioimmunoassay; conditions: rat, heart, iv, 1 mg/kg
rat heart = assay: as above; conditions: 1 mg/kg d,l-propranolol i.v.
[8] = antiserum against l-propranolol

In the case of `CC(C)NCC(O)c1ccc(O)c(O)c1` (stereo not drawn) [isoproterenol], the “inhibition of 3H-propranolol binding” value [1] is reported as “no inhibition” and the “recognition / cross-reaction / interference” value ([1]; both antisera) is reported as “no cross-reaction”.

For `Oc1cccc2ccccc12` [1-naphthol], the “concentration needed for interference with the assay” value ([1]; both antisera) was “at least 1,000 times greater”, the “inhibition of 3H-propranolol binding” value ([2]; anti-d,l-propranolol antiserum) was 25% and the “inhibition of 3H-propranolol binding” value ([3]; anti-l-propranolol antiserum) was 45%.

In the case of `Oc1ccc(O)c2ccccc12` [1,4-naphthalene-diol], the “concentration needed for interference with the assay” value ([1]; both antisera) is reported as “at least 1,000 times greater”, the “inhibition of 3H-propranolol binding” value ([2]; anti-d,l-propranolol antiserum) is reported as “no inhibition” and the “inhibition of 3H-propranolol binding” value ([3]; anti-l-propranolol antiserum) is reported as 17%.

With `CC(C)NCC(O)COc1cccc2ccccc12` (racemic) [propranolol] the disposition in blood [4] was “declines rapidly in the blood following the injection”, the “time by which effect on heart rate disappeared” value [5] was ≤ 90 min and the “suppression of increase in heart rate due to isoproterenol” value ([5]; first 30 minutes after administration) was “markedly suppressed”.

With `OCC(O)COc1cccc2ccccc12` (stereo not drawn) [propranolol glycol, 1-(1-naphthoxy)-2,3-propylene glycol] the “ID50 relative to values for l-propranolol and d,l-propranolol” value ([1]; both antisera) was 9-14 times.

In the case of `NCC(O)c1ccc(O)c(O)c1` (stereo not drawn) [norepinephrine], the “inhibition of 3H-propranolol binding” value [1] is reported as “no inhibition”.

In the case of `CC(C)NCC(O)c1ccc2ccccc2c1` (stereo not drawn) [pronethalol], the “recognition / cross-reaction / interference” value ([1]; both antisera) is reported as “not significant recognized by either antisera” and the “inhibition of 3H-propranolol binding” value ([2]; anti-d,l-propranolol antiserum) is reported as 45%.

With `CC(C)NCC(O)COc1ccc(O)c2ccccc12` (stereo not drawn) [4-hydroxy-propranolol] the “concentration needed for recognition by the d,l-antibody” value ([2]; antiserum against d,l-propranolol) was ≥ 70 times greater and the “concentration needed for recognition by the l-antibody” value [3, 8] was ≥ 35 times greater.

For `CC(C)NC[C@@H](O)COc1cccc2ccccc12` [d-propranolol], the “ID50 and 95% confidence limits” value ([2]; anti-d,l-propranolol antiserum, amount for 50% inhibition of 3H-propranolol-antibody complex formation, 95% confidence limits in parentheses) was 314 pg, the “recognition by antiserum against d,l-propranolol” value [2] was “to the same degree” and the half-life [4] was 23.8 min. For the same compound, the disposition in blood [4] was “remains in the blood and is metabolized rapidly”, the “amount of l-form as which 100 pg of the d isomer is recognized by the l-antibody” value ([3]; 100 pg of d isomer) was 7 pg and the “ID50 and 95% confidence limits” value ([3]; anti-l-propranolol antiserum, amount for 50% inhibition of 3H-propranolol-antibody complex formation, 95% confidence limits in parentheses) was 1656 pg. The “ID50 relative to that for l-propranolol” value [3, 8] was 14 times and the “initial blood level relative to l-propranolol” value [6] was “three times higher”.

In the case of `CC(C)NCC(O)c1ccc(Cl)c(Cl)c1` (stereo not drawn) [dichloroisoproterenol], the “recognition / cross-reaction / interference” value ([1]; both antisera) is reported as “not significant recognized by either antisera”, the “inhibition of 3H-propranolol binding” value ([2]; anti-d,l-propranolol antiserum) is reported as 13% and the “inhibition of 3H-propranolol binding” value ([3]; anti-l-propranolol antiserum) is reported as “no inhibition”.

With `O=C(O)COc1cccc2ccccc12` [1-naphthoxy acetic acid] the “concentration needed for interference with the assay” value ([1]; both antisera) was “at least 1,000 times greater”, the “inhibition of 3H-propranolol binding” value ([2]; anti-d,l-propranolol antiserum) was 10% and the “inhibition of 3H-propranolol binding” value ([3]; anti-l-propranolol antiserum) was 25%.

For `CC(C)NC[C@H](O)COc1cccc2ccccc12` [l-propranolol], the half-life [7] was 62 min, the “decline in heart compared with blood” value (rat heart; after half an hour) was “almost parallel to that found in the blood” and the “heart uptake / presence in heart” value (rat heart; in words, 1 mg/kg) was “rapid accumulation of l-propranolol by the heart; also recorded: stereospecific uptake of l-propranolol by the rat heart; also recorded: only l-propranolol could be found in the heart”. For the same compound, the “recognition by antiserum against d,l-propranolol” value [2] was “to the same degree”, the half-life [4] was 52 min and the “half-life relative to d-isomer” value ([4]; 1 mg/kg d,l-propranolol i.v.) was “almost twice that of the d-isomer”. The “selectivity of antiserum against l-propranolol” value ([3]; l-propranolol versus d-isomer) was “able to discriminate the l-propranolol selectively; also recorded: more selectively than the d-isomer”.

In the case of `CNCC(O)c1ccc(O)c(O)c1` (stereo not drawn) [epinephrine], the “inhibition of 3H-propranolol binding” value [1] is reported as “no inhibition”.

With `NCCc1ccc(O)c(O)c1` [dopamine] the “inhibition of 3H-propranolol binding” value [1] was “no inhibition”.

With `CC(C)N` [isopropylamine] the “inhibition of 3H-propranolol binding” value [1] was “no inhibition” and the “concentration needed for interference with the assay” value ([1]; both antisera) was “at least 1,000 times greater”.
